Measured values taken from patent US20240158446A1, “CYCLIC COMPOUND HAVING SELECTIVE INHIBITORY ACTION ON KRAS OVER HRAS AND NRAS” (CHUGAI SEIYAKU KABUSHIKI KAISHA, priority 2021, published 2024).

Columns and labels:
[1] = molecular target: GDP-bound KRAS wild-type protein (Homo sapiens, UniProt P01116); assay: Binding to KRAS by surface plasmon resonance (SPR), Single Cycle Kinetics; settings: SPR, Single Cycle Kinetics, GDP-bound KRAS wild-type protein; read-out: KRAS KD
[2] = molecular target: GDP-bound NRAS wild-type protein (Homo sapiens, UniProt P01111); assay: Binding to NRAS by surface plasmon resonance (SPR), Single Cycle Kinetics; settings: ratio of KD for GDP-bound NRAS wild-type protein to KD for KRAS, SPR
[3] = molecular target: GDP-bound HRAS wild-type protein (Homo sapiens, UniProt P01112); assay: Binding to HRAS by surface plasmon resonance (SPR), Single Cycle Kinetics; settings: ratio of KD for GDP-bound HRAS wild-type protein to KD for KRAS, SPR
[4] = system: human lung cancer strain NCI-H441; assay: cells; settings: NCI-H441, 96 h, read-out: NCI-H441 IC50 (nM), NCI-H441 cell proliferation, 4 days, CellTiter-Glo;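 note: cell proliferation inhibition after four days measured by CellTiter-Glo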

Chain of GDP-bound NRAS wild-type protein (P01111 whole entry): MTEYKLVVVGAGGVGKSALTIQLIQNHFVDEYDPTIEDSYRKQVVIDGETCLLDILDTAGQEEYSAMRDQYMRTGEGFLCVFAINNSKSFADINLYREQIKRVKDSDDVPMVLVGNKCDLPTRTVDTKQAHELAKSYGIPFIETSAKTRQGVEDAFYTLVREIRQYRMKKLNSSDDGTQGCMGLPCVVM
Chain of GDP-bound KRAS wild-type protein (P01116 whole entry): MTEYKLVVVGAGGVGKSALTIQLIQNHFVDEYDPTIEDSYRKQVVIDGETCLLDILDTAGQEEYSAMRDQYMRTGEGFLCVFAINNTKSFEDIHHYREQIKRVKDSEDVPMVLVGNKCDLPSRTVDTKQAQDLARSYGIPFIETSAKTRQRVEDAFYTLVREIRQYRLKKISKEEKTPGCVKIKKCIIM
Chain of GDP-bound HRAS wild-type protein (P01112 whole entry): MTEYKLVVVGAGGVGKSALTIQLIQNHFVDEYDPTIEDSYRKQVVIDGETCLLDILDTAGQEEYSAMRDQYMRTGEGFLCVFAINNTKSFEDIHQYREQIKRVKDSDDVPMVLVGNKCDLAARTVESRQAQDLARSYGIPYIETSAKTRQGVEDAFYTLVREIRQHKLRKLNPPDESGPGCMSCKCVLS

SMILES	Kd [1] [nM]	NRAS/KRAS (KD ratio) [2]	HRAS/KRAS (KD ratio) [3]	IC50 [4] [nM]
CCO[C@@H]1C[C@H]2C(=O)NC3(CC(C)(C)C3)C(=O)N(C)[C@@H](C3CCCC3)C(=O)N(C)[C@H](C(=O)N(C)C)CC(=O)N(C)[C@@H](CC(F)F)C(=O)N[C@@H]([C@@H](C)CC)C(=O)N(C)CC(=O)N(C)[C@H]3C/C=C\CCN(C3=O)[C@@H](Cc3ccc(C(F)(F)F)cc3)C(=O)N(C)CC(=O)N[C@@H](CCc3ccc(C(F)(F)F)c(Cl)c3)C(=O)N2C1 [PP1747]	0.058	A (a compound having 10 or more and less than 20 is denoted as A)	A (a compound having 10 or more and less than 20 is denoted as A)	2.3
CCC[C@H]1C(=O)N[C@@H]([C@@H](C)CC)C(=O)N(C)CC(=O)N(C)[C@H]2C/C=C\CCN(C2=O)[C@@H](Cc2ccc(C(F)(F)F)cc2)C(=O)N(C)CC(=O)N[C@@H](CCc2ccc(C(F)(F)F)c(Cl)c2)C(=O)N2C[C@H](OCC)C[C@H]2C(=O)NC2(CC(C)(C)C2)C(=O)N(C)[C@@H](C2CCCC2)C(=O)N(C)[C@H](C(=O)N(C)C)CC(=O)N1C [PP1748]	0.062	A (a compound having 10 or more and less than 20 is denoted as A)	B (a compound having 3 or more and less than 10 is denoted as B)	3.1
CCO[C@@H]1C[C@H]2C(=O)NC3(CC(C)(C)C3)C(=O)N(C)[C@@H](C3CCCC3)C(=O)N(C)[C@H](C(=O)N(C)C)CC(=O)N(C)[C@@H](CC3CC3)C(=O)N[C@@H]([C@@H](C)CC)C(=O)N(C)CC(=O)N(C)[C@H]3C/C=C\CCN(C3=O)[C@@H](Cc3ccc(C(F)(F)F)cc3)C(=O)N(C)CC(=O)N[C@@H](CCc3ccc(C(F)(F)F)c(Cl)c3)C(=O)N2C1 [PP1749]	0.039	A (a compound having 10 or more and less than 20 is denoted as A)	A (a compound having 10 or more and less than 20 is denoted as A)	3.3
CCCC[C@H]1C(=O)N[C@@H]([C@@H](C)CC)C(=O)N(C)CC(=O)N(C)[C@H]2C/C=C\CCN(C2=O)[C@@H](Cc2ccc(C(F)(F)F)cc2)C(=O)N(C)CC(=O)N[C@@H](CCc2ccc(C(F)(F)F)c(Cl)c2)C(=O)N2C[C@H](OCC)C[C@H]2C(=O)NC2(CC(C)(C)C2)C(=O)N(C)[C@@H](C2CCCC2)C(=O)N(C)[C@H](C(=O)N(C)C)CC(=O)N1C [PP1750]	0.069	A (a compound having 10 or more and less than 20 is denoted as A)	B (a compound having 3 or more and less than 10 is denoted as B)	3.4
CCO[C@@H]1C[C@H]2C(=O)NC3(CC(C)(C)C3)C(=O)N(C)[C@@H](C3CCCC3)C(=O)N(C)[C@H](C(=O)N(C)C)CC(=O)N(C)[C@@H](CC(C)C)C(=O)N[C@@H]([C@@H](C)CC)C(=O)N(C)CC(=O)N(C)[C@H]3C/C=C\CCN(C3=O)[C@@H](Cc3ccc(C(F)(F)F)cc3)C(=O)N(C)CC(=O)N[C@@H](CCc3ccc(C(F)(F)F)c(Cl)c3)C(=O)N2C1 [PP1751]	0.047	A (a compound having 10 or more and less than 20 is denoted as A)	A (a compound having 10 or more and less than 20 is denoted as A)	2.2
CCO[C@@H]1C[C@H]2C(=O)NC3(CC(C)(C)C3)C(=O)N(C)[C@@H](C3CCCC3)C(=O)N(C)[C@H](C(=O)N(C)C)CC(=O)N(C)[C@@H](CC3CCC3)C(=O)N[C@@H]([C@@H](C)CC)C(=O)N(C)CC(=O)N(C)[C@H]3C/C=C\CCN(C3=O)[C@@H](Cc3ccc(C(F)(F)F)cc3)C(=O)N(C)CC(=O)N[C@@H](CCc3ccc(C(F)(F)F)c(Cl)c3)C(=O)N2C1 [PP1752]	0.085	A (a compound having 10 or more and less than 20 is denoted as A)	A (a compound having 10 or more and less than 20 is denoted as A)	5.8
CCO[C@@H]1C[C@H]2C(=O)NC3(CC(C)(C)C3)C(=O)N(C)[C@@H](C3CCCC3)C(=O)N(C)[C@H](C(=O)N(C)C)CC(=O)N(C)[C@@H](COC)C(=O)N[C@@H]([C@@H](C)CC)C(=O)N(C)CC(=O)N(C)[C@H]3C/C=C\CCN(C3=O)[C@@H](Cc3ccc(C(F)(F)F)cc3)C(=O)N(C)CC(=O)N[C@@H](CCc3ccc(C(F)(F)F)c(Cl)c3)C(=O)N2C1 [PP1753]	0.038	A (a compound having 10 or more and less than 20 is denoted as A)	A (a compound having 10 or more and less than 20 is denoted as A)	5.9
CCCOC[C@H]1C(=O)N[C@@H]([C@@H](C)CC)C(=O)N(C)CC(=O)N(C)[C@H]2C/C=C\CCN(C2=O)[C@@H](Cc2ccc(C(F)(F)F)cc2)C(=O)N(C)CC(=O)N[C@@H](CCc2ccc(C(F)(F)F)c(Cl)c2)C(=O)N2C[C@H](OCC)C[C@H]2C(=O)NC2(CC(C)(C)C2)C(=O)N(C)[C@@H](C2CCCC2)C(=O)N(C)[C@H](C(=O)N(C)C)CC(=O)N1C [PP1754]	0.064	A (a compound having 10 or more and less than 20 is denoted as A)	A (a compound having 10 or more and less than 20 is denoted as A)	3
CCCN(C)C(=O)[C@@H]1CC(=O)N(C)[C@@H](CC(F)F)C(=O)N[C@@H]([C@@H](C)CC)C(=O)N(C)CC(=O)N(C)[C@H]2C/C=C\CCN(C2=O)[C@@H](Cc2ccc(C(F)(F)F)cc2)C(=O)N(C)CC(=O)N[C@@H](CCc2cc(F)c(Cl)c(F)c2)C(=O)N2C[C@H](OCC)C[C@H]2C(=O)NC2(CC(C)(C)C2)C(=O)N(C)[C@@H](C2CCCC2)C(=O)N1C [PP1757]	0.31	AA (a compound having 20 or more is denoted as AA)	A (a compound having 10 or more and less than 20 is denoted as A)	7.1
CCC[C@H]1C(=O)N[C@@H]([C@@H](C)CC)C(=O)N(C)CC(=O)N(C)[C@H]2C/C=C\CCN(C2=O)[C@@H](Cc2ccc(C(F)(F)F)cc2)C(=O)N(C)CC(=O)N[C@@H](CCc2cc(F)c(Cl)c(F)c2)C(=O)N2C[C@H](OCC)C[C@H]2C(=O)NC2(CC(C)(C)C2)C(=O)N(C)[C@@H](C2CCCC2)C(=O)N(C)[C@H](C(=O)N(C)C)CC(=O)N1C [PP1758]	0.19	AA (a compound having 20 or more is denoted as AA)	A (a compound having 10 or more and less than 20 is denoted as A)	6
CCO[C@@H]1C[C@H]2C(=O)NC3(CC(C)(C)C3)C(=O)N(C)[C@@H](C3CCCC3)C(=O)N(C)[C@H](C(=O)N(C)C)CC(=O)N(C)[C@@H](CC3CC3)C(=O)N[C@@H]([C@@H](C)CC)C(=O)N(C)CC(=O)N(C)[C@H]3C/C=C\CCN(C3=O)[C@@H](Cc3ccc(C(F)(F)F)cc3)C(=O)N(C)CC(=O)N[C@@H](CCc3cc(F)c(Cl)c(F)c3)C(=O)N2C1 [PP1759]	0.15	A (a compound having 10 or more and less than 20 is denoted as A)	A (a compound having 10 or more and less than 20 is denoted as A)	6.2
CCO[C@@H]1C[C@H]2C(=O)NC3(CC(C)(C)C3)C(=O)N(C)[C@@H](C3CCCC3)C(=O)N(C)[C@H](C(=O)N(C)C)CC(=O)N(C)[C@@H](CC(C)C)C(=O)N[C@@H]([C@@H](C)CC)C(=O)N(C)CC(=O)N(C)[C@H]3C/C=C\CCN(C3=O)[C@@H](Cc3ccc(C(F)(F)F)cc3)C(=O)N(C)CC(=O)N[C@@H](CCc3cc(F)c(Cl)c(F)c3)C(=O)N2C1 [PP1761]	0.17	A (a compound having 10 or more and less than 20 is denoted as A)	A (a compound having 10 or more and less than 20 is denoted as A)	5.2
CCO[C@@H]1C[C@H]2C(=O)NC3(CC(C)(C)C3)C(=O)N(C)[C@@H](C3CCCC3)C(=O)N(C)[C@H](C(=O)N(C)C)CC(=O)N(C)[C@@H](CC3CCC3)C(=O)N[C@@H]([C@@H](C)CC)C(=O)N(C)CC(=O)N(C)[C@H]3C/C=C\CCN(C3=O)[C@@H](Cc3ccc(C(F)(F)F)cc3)C(=O)N(C)CC(=O)N[C@@H](CCc3cc(F)c(Cl)c(F)c3)C(=O)N2C1 [PP1762]	0.26	A (a compound having 10 or more and less than 20 is denoted as A)	A (a compound having 10 or more and less than 20 is denoted as A)	8.4
CCCN(C)C(=O)[C@@H]1CC(=O)N(C)[C@@H](COC)C(=O)N[C@@H]([C@@H](C)CC)C(=O)N(C)CC(=O)N(C)[C@H]2C/C=C\CCN(C2=O)[C@@H](Cc2ccc(C(F)(F)F)cc2)C(=O)N(C)CC(=O)N[C@@H](CCc2cc(F)c(Cl)c(F)c2)C(=O)N2C[C@H](OCC)C[C@H]2C(=O)NC2(CC(C)(C)C2)C(=O)N(C)[C@@H](C2CCCC2)C(=O)N1C [PP1763]	0.23	A (a compound having 10 or more and less than 20 is denoted as A)	A (a compound having 10 or more and less than 20 is denoted as A)	13.3
CCCOC[C@H]1C(=O)N[C@@H]([C@@H](C)CC)C(=O)N(C)CC(=O)N(C)[C@H]2C/C=C\CCN(C2=O)[C@@H](Cc2ccc(C(F)(F)F)cc2)C(=O)N(C)CC(=O)N[C@@H](CCc2cc(F)c(Cl)c(F)c2)C(=O)N2C[C@H](OCC)C[C@H]2C(=O)NC2(CC(C)(C)C2)C(=O)N(C)[C@@H](C2CCCC2)C(=O)N(C)[C@H](C(=O)N(C)C)CC(=O)N1C [PP1764]	0.11	AA (a compound having 20 or more is denoted as AA)	A (a compound having 10 or more and less than 20 is denoted as A)	11.1
